Results from PubChem BioAssay AID2769 (The Scripps Research Institute Molecular Screening Center, 2010).

What follows are compounds tested against VIM-2 metallo-beta-lactamase (Pseudomonas aeruginosa) (UniProt Q9K2N0) (assay: VIM-2 metallo-beta-lactamase inhibitor potency, late-stage follow-up, biochemical, epi-absorbance, dose response (AID 2769)). Settings: purified VIM-2, nitrocefin absorbance hydrolysis.

SMILES | IC50 [µM]
O=C(O)c1cc[c]([Hg][Cl])cc1 | 2.59
[Hg+][c]1ccccc1 | 1
Cc1cc[c]([Hg+])cc1 | 0.814
CC(=O)Nc1cc[c]([Hg+])cc1 | 2.58
O=C(O)c1ccc[c]([Hg+])c1 | 0.817
